Entries after “also recorded” stand apart in the source; their conditions may differ. Where no end group is shown, it is not given here.
How the values were obtained:
[1] = tested on: apoptotic A549 cells; test: Competitive inhibition of binding to apoptotic cells by annexin V treatment (Example 3-2); format: cell-based, human; conditions: annexin V 1000 μM pre-treatment
Method: In order to further investigate the binding properties of the peptide of the present invention (ApoPep-1) to apoptotic cells, competitive inhibition by annexin V was measured. To this end, first, apoptotic A549 cells were pre-treated with annexin V, not labeled with fluorescence, at concentrations of 0, 200 and […]. Then, after reacting the cells with fluorescence-labeled annexin V under the same condition as described in Example <3-1>, the binding of the cells was observed under a fluorescence microscope.
Further, apoptotic A549 cells were pre-treated with annexin V, not labeled with fluorescence, at a concentration of 1000 μM. Then, after reacting the cells with fluorescence-labeled peptide under the same condition as described in Example <3-1>, the binding of the cells was observed under a fluorescence microscope.

[2] = tested on: apoptotic cells in A549 tumor tissue xenotransplanted under the skin of nude mouse; test: Histological analysis of tumor targeting (Example 2); format: in vivo; conditions: fluorescein-labeled peptide, tail vein; for binding to cells stained by TUNEL (apoptotic cells) in tumor tissue: merge of peptide fluorescence and TUNEL
Method: All animal experiments were performed in accordance with the guideline of the Institutional Animal Care and Use Committee. For tumor xenotransplantation, human lung cancer cells (A549, 1×10^7 cells) suspended in RMPI-1640 medium was subcutaneously injected at the right upper or lower limb of a 6-week-old male BALB/c nude mouse (Hyochang Science). Then, 3 weeks were given for the tumor to grow to a size of 0.5 to 1 cm. The A549 cell line used in the experiment was cultured in RMPI-1640 medium containing 10% fetal bovine serum (FBS) in which antibiotics (penicillin and streptomycin) were included. Subculturing was performed every 3 or 4 days.
The peptides used in the present invention were fluorescein-attached form at the N-terminal. They were synthesized according to the standard Fmoc technique and then isolated through HPLC. The peptide synthesis was performed by an expertise company (Peptron).
The peptide of the present invention (ApoPep-1) or a control peptide (amino acid sequence: NSSSVDK), labeled with fluorescein, was injected into the tail vein of a mouse under isoflurane anesthesia, to a final concentration of 50 μM, and 2 hours was given for circulation.
For histological analysis, the mouse was anesthetized and the abdomen was cut open. After sequentially perfusing phosphate-buffered saline (PBS) and 4% paraformaldehyde through the heart, tumor tissues and organs were removed. Each tissue was cryosected and the peptide of the present invention was observed under a fluorescence microscope (Zeiss). Apoptosis in the tumor tissue was confirmed by TUNEL ([…] terminal deoxynucleotidyl transferase-mediated dUTP nick-end labeling) assay according to the instructions of the manufacturer (Chemicon). Fibrinogen staining was performed by immunohistochemistry using anti-fibrinogen antibody (Abcam) and secondary antibody labeled with Alexa 568, a red fluorescent reagent.

[3] = tested on: etoposide-treated apoptotic A549 cells; test: FACS analysis of binding to apoptotic cells (Example 3-3); format: cell-based, human
Method: As another way of confirming the binding of the peptide of the present invention to apoptotic cells, apoptotic cells were treated with the peptide of the present invention, labeled with fluorescein, and the binding was confirmed through FACS analysis. […] The apoptotic cells or normal cells were reacted with ApoPep-1 (5 μM), ApoPep-2 (10 μM) or a control peptide at the same concentrations, labeled with fluorescein, at 4° C. for 1 hour. Further, the cells were reacted with fluorescein-labeled annexin V at room temperature for 15 minutes. After staining the cells with propodium iodide (PI) simultaneously, followed by washing with PBS, FACS analysis was performed using a FACS instrument (Becton Dickinson).

[4] = tested on: A549 tumor xenotransplanted in nude mice; test: In vivo fluorescence imaging of targeting of apoptotic cells in tumor (Example 4-1); design: species or system mouse
Method: Nude mice in which tumor was xenotransplanted using A549 cells were prepared as in Example <2-1>. The mice were grouped into a doxorubicin (Sigma) treated group (+Dox) and untreated group (−Dox). The treated group was treated with doxorubicin (10 mg/kg) 3 times, with an interval of 48 hours, a week prior to injection of the peptide. At the tail vein of each mouse, the peptide of the present invention or a control peptide, labeled with fluorescein, was injected at a final concentration of 50 μM, under isoflurane anesthesia. Following the injection, in vivo fluorescence images were obtained every hour, from 1 hour to 6 hours after the injection, using an Optix exPlore instrument (GE Healthcare). The images were standardized using the software provided with the instrument.
Further, when the tumor grew considerably (1 cm or larger in diameter), the peptide of the present invention was injected at the same concentration as above, without doxorubicin treatment, and in vivo fluorescence images were obtained at every given time using an IVIS fluorescence imaging system (Chemipro).

[5] = tested on: etoposide-treated apoptotic A549 cells; test: Microscopic observation of binding of the peptide to apoptotic cells, A549 (Example 9-1); format: cell-based, human
Method: Cells were cultured in chamber slide (Nunc) and treated with 50 μM etoposide (Sigma) for 16 hours (A549 cells) or 50 ng/ml trail (R&D Systems) for 16 hours (MDA-MB231 cells) to induce apoptosis. The cells were cultured in RMPI-1640 medium (A549 cells) or DMEM-High (MDA-MB231 cells) containing antibiotics (penicillin and streptomycin) and 10% FBS. All the cells were sub-cultured every 3 or 4 days. The apoptosis-induced apoptotic cells were washed with PBS and blocked with 1% BSA at 37° C. for 30 minutes. Then, the cells were reacted with 10 μM of the peptide labeled with fluorescein, at 4° C. for 1 hour. After washing, the cells were reacted with an annexin V reaction buffer containing Alexa594-labeled annexin V (Invitrogen) at room temperature for 15 minutes. The cells were washed with PBS and then fixed with 4% paraformaldehyde for 5 minutes. After treatment with a mounting solution containing the DAPI nuclear stain, images of the cells were obtained under a fluorescence microscope.

[6] = tested on: A549 tumor xenotransplanted in nude mice; test: In vivo fluorescence imaging of targeting of apoptotic cells in tumor (Example 10); design: species or system mouse; conditions: fluorescein-labeled; large tumor (1 cm or larger)
[7] = tested on: etoposide-treated apoptotic A549 cells; test: FACS analysis of binding to apoptotic cells (Example 9-3); format: cell-based, human
Method: As another way of confirming the binding of the polypeptide of the present invention (ApoPep-2) to apoptotic cells, apoptotic cells were treated with the peptide, labeled with fluorescein, and the binding was confirmed through FACS analysis. First, apoptosis was induced by treating A549 cells with 50 μM etoposide for 20 hours. The apoptotic cells or normal cells were reacted with ApoPep-2 (10 μM) or a control peptide at the same concentration, labeled with fluorescein, at 4° C. or 37° C. for 1 hour. Further, the cells were reacted with fluorescein-labeled annexin V at room temperature for 15 minutes. After washing cells with PBS, FACS analysis was performed using a FACS instrument (Becton Dickinson).

[8] = etoposide 15 hours, peptide 5 μM, 4° C. 1 hour

Substance	binding of fluorescence-labeled peptide after pre-treatment with unlabeled annexin V [1]	peptide fluorescence observed in the tumor tissue ([2]; 50 μM final, 2 hours circulation, cryosections)	binding to cells not stained by TUNEL (coagulation necrotic site, fibrinogen staining) ([2]; 50 μM, 2 hours)	binding to cells stained by TUNEL (apoptotic cells) in tumor tissue ([2]; 50 μM, 2 hours)	binding to normal cells (FACS) ([3]; A549 cells without etoposide, 4° C. 1 hour)	cells at the early stage of apoptosis bound to the peptide [3, 8] [%]	cells at the later stage of apoptosis bound to the peptide [3, 8] [%]	time until which the tumor fluorescence signal was detected ([4]; doxorubicin treated group, fluorescein-labeled peptide 50 μM) [h]	time at which the fluorescence signal from the tumor tissue was most strongly detected ([4]; doxorubicin treated group, fluorescein-labeled peptide 50 μM, tail vein) [h]	fluorescence signal from the tumor, doxorubicin untreated group ([4]; −Dox, fluorescein-labeled peptide 50 μM)	labeling of A549 cells not treated with etoposide ([5]; 10 μM peptide 4° C. 1 hour, Alexa594-annexin V)	labeling of etoposide-treated apoptotic A549 cells ([5]; 50 μM etoposide 16 hours, 10 μM fluorescein-labeled peptide 4° C. 1 hour, Alexa594-annexin V)	location of peptide binding relative to annexin V binding (merge), A549 ([5]; etoposide-treated apoptotic cells)	fluorescence signal from the tumor at 5 hours [6]	binding to normal cells (FACS) ([7]; A549 without etoposide, 10 μM, 4° C. or 37° C.)	cells bound to the peptide at 4° C. ([7]; etoposide 20 hours, peptide 10 μM, 4° C. 1 hour) [%]	cells bound to the peptide at 37° C. ([7]; etoposide 20 hours, peptide 10 μM, 37° C. 1 hour) [%]	binding to apoptotic cells versus normal cells (FACS) ([3]; etoposide 20 hours, peptide 10 μM at 4° C. or 37° C. for 1 hour)	time from which fluorescence from the tumor was detected ([4]; large tumor (1 cm or larger in diameter), no doxorubicin, IVIS) [h]	fluorescence signal from the tumor at 5 hours ([4]; large tumor (1 cm or larger), no doxorubicin)
CQRPPR (also: fluorescein or Cy7.5 label) [ApoPep-1, peptide CQRPPR screened for macrophages; used fluorescein- or Cy7.5-labeled]	not inhibited	observed in the tumor tissue	also binds to the cells not stained by TUNEL	binds to the cells stained by TUNEL	almost nonexistent	90.3	7.2	5	2	weakly detected or almost nonexistent										
CSVAPR (also: fluorescein or Cy7.5 label) [ApoPep-2, peptide CSVAPR screened for endothelial cells; used fluorescein- or Cy7.5-labeled]				binds to the apoptotic cells in the tumor tissue							hardly bound to the untreated cells; also recorded: no labeling was observed	strongly bound to the apoptotic cells; also recorded: labeling was observed	at the same locations	strong fluorescence signal	almost nonexistent or minimal	28	48	bound better to the apoptotic cells than to the normal cells	2	strong fluorescence signal
